Source: ChEMBL document CHEMBL3045571, “Repellent activity of essential oils and some of their individual constituents against Tribolium castaneum herbst” (J Agric Food Chem, 2011)

Columns and labels:
Tribolium castaneum [1] = test: Repellent activity against Tribolium castaneum (red flour beetle) assessed as induction of repellency measured 4 hr post compound exposure at 0.00002 uL/cm2 using 15% compound formulation; type: functional
Tribolium castaneum [2] = test: Repellent activity against Tribolium castaneum (red flour beetle) assessed as induction of repellency measured 2 hr post compound exposure at 0.02 uL/cm2 using 15% compound formulation; type: functional
Tribolium castaneum [3] = test: Repellent activity against Tribolium castaneum (red flour beetle) assessed as induction of repellency measured 4 hr post compound exposure at 0.2 uL/cm2 using 15% compound formulation; type: functional
Tribolium castaneum [4] = test: Repellent activity against Tribolium castaneum (red flour beetle) assessed as induction of repellency measured 4 hr post compound exposure at 0.002 uL/cm2 using 15% compound formulation; type: functional
Tribolium castaneum [5] = test: Repellent activity against Tribolium castaneum (red flour beetle) assessed as induction of repellency measured 4 hr post compound exposure at 0.02 uL/cm2 using 15% compound formulation; type: functional
Tribolium castaneum [6] = test: Repellent activity against Tribolium castaneum (red flour beetle) assessed as induction of repellency measured 2 hr post compound exposure at 0.2 uL/cm2 using 15% compound formulation; type: functional
Tribolium castaneum [7] = test: Repellent activity against Tribolium castaneum (red flour beetle) assessed as induction of repellency measured 2 hr post compound exposure at 0.002 uL/cm2 using 15% compound formulation; type: functional
Tribolium castaneum [8] = test: Repellent activity against Tribolium castaneum (red flour beetle) assessed as induction of repellency measured 2 hr post compound exposure at 0.0002 uL/cm2 using 15% compound formulation; type: functional
Tribolium castaneum [9] = test: Repellent activity against Tribolium castaneum (red flour beetle) assessed as induction of repellency measured 2 hr post compound exposure at 0.00002 uL/cm2 using 15% compound formulation; type: functional
Tribolium castaneum [10] = test: Repellent activity against Tribolium castaneum (red flour beetle) assessed as induction of repellency measured 4 hr post compound exposure at 0.0002 uL/cm2 using 15% compound formulation; type: functional
[11] = Lipophilicity, logP of the compound; type: physicochemical; conditions: octanol/water

CCCCN(CCC(=O)OCC)C(C)=O
Repellency (Tribolium castaneum [1]): -6%
Repellency (Tribolium castaneum [2]): 60%
Repellency (Tribolium castaneum [3]): 75%
Repellency (Tribolium castaneum [4]): 40%
Repellency (Tribolium castaneum [5]): 50%
Repellency (Tribolium castaneum [6]): 78%
Repellency (Tribolium castaneum [7]): 54%
Repellency (Tribolium castaneum [8]): 16%
Repellency (Tribolium castaneum [9]): 2%
Repellency (Tribolium castaneum [10]): 4%

C=C(C)[C@H]1CC=C(C)C(=O)C1 [(S)(+)CARVONE]
Repellency (Tribolium castaneum [1]): -10%
logP [11]: 3.07
Repellency (Tribolium castaneum [2]): 91%
Repellency (Tribolium castaneum [3]): 94%
Repellency (Tribolium castaneum [4]): 30%
Repellency (Tribolium castaneum [5]): 85%
Repellency (Tribolium castaneum [6]): 96%
Repellency (Tribolium castaneum [7]): 53%
Repellency (Tribolium castaneum [8]): 45%
Repellency (Tribolium castaneum [9]): -10%
Repellency (Tribolium castaneum [10]): 21%

O=C(OCc1ccccc1)c1ccccc1 [BENZYL BENZOATE]
Repellency (Tribolium castaneum [1]): 6%
Repellency (Tribolium castaneum [2]): 44%
Repellency (Tribolium castaneum [3]): 91%
Repellency (Tribolium castaneum [4]): 23%
Repellency (Tribolium castaneum [5]): 44%
Repellency (Tribolium castaneum [6]): 93%
Repellency (Tribolium castaneum [7]): 16%
Repellency (Tribolium castaneum [8]): 14%
Repellency (Tribolium castaneum [9]): 3%
Repellency (Tribolium castaneum [10]): 18%

O=C(OCc1ccccc1)c1ccccc1O [BENZYL SALICYLATE]
Repellency (Tribolium castaneum [1]): -34%
Repellency (Tribolium castaneum [2]): 74%
Repellency (Tribolium castaneum [3]): 99%
Repellency (Tribolium castaneum [4]): 46%
Repellency (Tribolium castaneum [5]): 78%
Repellency (Tribolium castaneum [6]): 94%
Repellency (Tribolium castaneum [7]): 65%
Repellency (Tribolium castaneum [8]): 29%
Repellency (Tribolium castaneum [9]): -29%
Repellency (Tribolium castaneum [10]): 25%

Cc1ccc(C(C)C)cc1O [CARVACROL]
Repellency (Tribolium castaneum [1]): 5%
Repellency (Tribolium castaneum [2]): 46%
Repellency (Tribolium castaneum [3]): 90%
Repellency (Tribolium castaneum [4]): -6%
Repellency (Tribolium castaneum [5]): 48%
Repellency (Tribolium castaneum [6]): 86%
Repellency (Tribolium castaneum [7]): -3%
Repellency (Tribolium castaneum [8]): 9%
Repellency (Tribolium castaneum [9]): 8%
Repellency (Tribolium castaneum [10]): 8%

CC(C)=CCC/C(C)=C/C=O [CITRAL]
Repellency (Tribolium castaneum [1]): 21%
Repellency (Tribolium castaneum [2]): 89%
Repellency (Tribolium castaneum [3]): 98%
Repellency (Tribolium castaneum [4]): 55%
Repellency (Tribolium castaneum [5]): 79%
Repellency (Tribolium castaneum [6]): 98%
Repellency (Tribolium castaneum [7]): 66%
Repellency (Tribolium castaneum [8]): 64%
Repellency (Tribolium castaneum [9]): 18%
Repellency (Tribolium castaneum [10]): 51%

CC(C)=CCCC(C)CCO (configuration not stated) [CITRONELLOL]
Repellency (Tribolium castaneum [1]): 40%
Repellency (Tribolium castaneum [2]): 74%
Repellency (Tribolium castaneum [3]): 96%
Repellency (Tribolium castaneum [4]): 60%
Repellency (Tribolium castaneum [5]): 85%
Repellency (Tribolium castaneum [6]): 96%
Repellency (Tribolium castaneum [7]): 59%
Repellency (Tribolium castaneum [8]): 45%
Repellency (Tribolium castaneum [9]): 30%
Repellency (Tribolium castaneum [10]): 43%

CC(C)=CCC/C(C)=C/CO [GERANIOL]
Repellency (Tribolium castaneum [1]): 4%
Repellency (Tribolium castaneum [2]): 75%
Repellency (Tribolium castaneum [3]): 95%
Repellency (Tribolium castaneum [4]): 58%
Repellency (Tribolium castaneum [5]): 74%
Repellency (Tribolium castaneum [6]): 98%
Repellency (Tribolium castaneum [7]): 64%
Repellency (Tribolium castaneum [8]): 43%
Repellency (Tribolium castaneum [9]): 6%
Repellency (Tribolium castaneum [10]): 35%

CC(=O)OC/C=C(\C)CCC=C(C)C [GERANYL ACETATE]
Repellency (Tribolium castaneum [1]): 8%
Repellency (Tribolium castaneum [2]): 60%
Repellency (Tribolium castaneum [3]): 94%
Repellency (Tribolium castaneum [4]): 24%
Repellency (Tribolium castaneum [5]): 63%
Repellency (Tribolium castaneum [6]): 95%
Repellency (Tribolium castaneum [7]): 21%
Repellency (Tribolium castaneum [8]): 21%
Repellency (Tribolium castaneum [9]): 5%
Repellency (Tribolium castaneum [10]): 23%

C=C(C)[C@@H]1CC=C(C)C(=O)C1 [L-CARVONE]
Repellency (Tribolium castaneum [1]): 19%
Repellency (Tribolium castaneum [2]): 84%
Repellency (Tribolium castaneum [3]): 95%
Repellency (Tribolium castaneum [4]): 68%
Repellency (Tribolium castaneum [5]): 74%
Repellency (Tribolium castaneum [6]): 100%
Repellency (Tribolium castaneum [7]): 55%
Repellency (Tribolium castaneum [8]): 35%
Repellency (Tribolium castaneum [9]): 21%
Repellency (Tribolium castaneum [10]): 44%

C=CC(=C)CCC=C(C)C [MYRCENE]
Repellency (Tribolium castaneum [1]): 25%
Repellency (Tribolium castaneum [2]): 61%
Repellency (Tribolium castaneum [3]): 93%
Repellency (Tribolium castaneum [4]): 65%
Repellency (Tribolium castaneum [5]): 71%
Repellency (Tribolium castaneum [6]): 85%
Repellency (Tribolium castaneum [7]): 56%
Repellency (Tribolium castaneum [8]): 33%
Repellency (Tribolium castaneum [9]): 28%
Repellency (Tribolium castaneum [10]): 30%

CC(C)=CCC/C(C)=C\CO [NEROL]
Repellency (Tribolium castaneum [1]): 8%
logP [11]: 3.47
Repellency (Tribolium castaneum [2]): 84%
Repellency (Tribolium castaneum [3]): 95%
Repellency (Tribolium castaneum [4]): 60%
Repellency (Tribolium castaneum [5]): 75%
Repellency (Tribolium castaneum [6]): 98%
Repellency (Tribolium castaneum [7]): 64%
Repellency (Tribolium castaneum [8]): 39%
Repellency (Tribolium castaneum [9]): 8%
Repellency (Tribolium castaneum [10]): 30%

Cc1ccc(C(C)C)cc1 [P-CYMENE]
Repellency (Tribolium castaneum [1]): -5%
Repellency (Tribolium castaneum [2]): 61%
Repellency (Tribolium castaneum [3]): 69%
Repellency (Tribolium castaneum [4]): 44%
Repellency (Tribolium castaneum [5]): 45%
Repellency (Tribolium castaneum [6]): 74%
Repellency (Tribolium castaneum [7]): 43%
Repellency (Tribolium castaneum [8]): -10%
Repellency (Tribolium castaneum [9]): -6%
Repellency (Tribolium castaneum [10]): -8%
